How the values were obtained:
[1] = test system: HL-60; experiment: Inhibitory concentration against Human leukemia cancer cell (HL-60)lines was determined.; format: functional, cell-based
[2] = test system: BGC-823; experiment: Inhibitory concentration against Human Gastric cancer cell (BGC)lines was determined.; format: functional, cell-based; settings: BGC-823, Stomach
[3] = test system: KB; experiment: Inhibitory concentration against KB cancer cell lines was determined.; format: functional, cell-based; settings: Homo sapiens
[4] = test system: HeLa; experiment: Inhibitory concentration against Hella cancer cell lines was determined.; format: functional, cell-based; settings: Homo sapiens
[5] = species on record: Homo sapiens; experiment: Inhibitory concentration against Human Gastric cancer cell (BGC) lines was determined.; format: functional; settings: Stomach

`NCCCCCCNC(=O)c1cc2c3ccccc3nc-2c[nH]1` showed an IC50 [1] of 510 µM.

`CCN(CC)CCNC(=O)c1cc2c3ccccc3nc-2c[nH]1` was tested, and the IC50 [2] was 98 µM, the IC50 [3] was 250 µM and the IC50 [1] was 130 µM.

Work on `NCCNC(=O)c1cc2c3ccccc3nc-2c[nH]1` yielded an IC50 [3] of 140 µM and an IC50 [1] of 81 µM.

In the case of `CN(C)CCCCNC(=O)c1cc2c3ccccc3nc-2c[nH]1`, the IC50 [4] is reported as 140 µM.

For `NCCCCNC(=O)c1cc2c(cn1)[nH]c1ccccc12`, the IC50 [2] was 8.6 µM, the IC50 [3] was 4.1 µM and the IC50 [1] was 1.9 µM.

With `O=c1[nH]cc(F)c(=O)[nH]1` [FLUOROURACIL] the IC50 [4] was 1.6 µM, the IC50 [5] was 68 µM and the IC50 [3] was 3.5 µM. The IC50 [1] was 1 µM.

From ChEMBL document CHEMBL1134180, “Synthesis and biological evaluation of DNA targeting flexible side-chain substituted beta-carboline derivatives” (Bioorg Med Chem Lett, 2001)
